From paper PMC9851200, “Multiparameter phenotypic screening for endogenous TFEB and TFE3 translocation identifies novel chemical series modulating lysosome function” (Autophagy, 2022)
Read-outs that look alike come from different tables or passages of the source.

Key:
PRKD1 [1] = target: T1, PRKD1 (Homo sapiens, UniProt Q15139); settings: cited from earlier work
T1 sequence (Q15139 1-912): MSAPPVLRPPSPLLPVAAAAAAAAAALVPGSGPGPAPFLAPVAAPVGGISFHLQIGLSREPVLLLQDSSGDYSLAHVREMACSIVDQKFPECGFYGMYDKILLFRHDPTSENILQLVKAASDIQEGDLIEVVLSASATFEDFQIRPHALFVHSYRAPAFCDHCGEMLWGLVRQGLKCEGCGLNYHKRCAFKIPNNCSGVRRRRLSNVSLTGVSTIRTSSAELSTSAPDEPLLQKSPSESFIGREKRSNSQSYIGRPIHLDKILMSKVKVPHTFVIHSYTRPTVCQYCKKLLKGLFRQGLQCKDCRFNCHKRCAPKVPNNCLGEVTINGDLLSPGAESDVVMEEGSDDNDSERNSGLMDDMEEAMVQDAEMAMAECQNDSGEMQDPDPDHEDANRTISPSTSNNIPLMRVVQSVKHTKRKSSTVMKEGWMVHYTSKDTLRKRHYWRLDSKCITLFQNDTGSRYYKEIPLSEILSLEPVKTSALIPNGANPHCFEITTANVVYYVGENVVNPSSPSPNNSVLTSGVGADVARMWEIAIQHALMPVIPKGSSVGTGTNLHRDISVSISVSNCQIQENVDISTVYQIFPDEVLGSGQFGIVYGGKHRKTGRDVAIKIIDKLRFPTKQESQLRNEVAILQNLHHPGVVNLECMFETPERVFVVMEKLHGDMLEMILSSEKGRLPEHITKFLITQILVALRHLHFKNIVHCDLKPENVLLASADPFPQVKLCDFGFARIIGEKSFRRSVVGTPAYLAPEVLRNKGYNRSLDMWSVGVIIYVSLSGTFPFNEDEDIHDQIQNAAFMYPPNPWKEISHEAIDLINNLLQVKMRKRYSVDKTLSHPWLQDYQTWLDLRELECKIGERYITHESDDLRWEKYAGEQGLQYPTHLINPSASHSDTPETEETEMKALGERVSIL

PRKD2 [2] = target: T2, PRKD2 (Homo sapiens, UniProt Q9BZL6); settings: read-out: IC50 PRKD2; cited from earlier work
T2 sequence (Q9BZL6 1-878): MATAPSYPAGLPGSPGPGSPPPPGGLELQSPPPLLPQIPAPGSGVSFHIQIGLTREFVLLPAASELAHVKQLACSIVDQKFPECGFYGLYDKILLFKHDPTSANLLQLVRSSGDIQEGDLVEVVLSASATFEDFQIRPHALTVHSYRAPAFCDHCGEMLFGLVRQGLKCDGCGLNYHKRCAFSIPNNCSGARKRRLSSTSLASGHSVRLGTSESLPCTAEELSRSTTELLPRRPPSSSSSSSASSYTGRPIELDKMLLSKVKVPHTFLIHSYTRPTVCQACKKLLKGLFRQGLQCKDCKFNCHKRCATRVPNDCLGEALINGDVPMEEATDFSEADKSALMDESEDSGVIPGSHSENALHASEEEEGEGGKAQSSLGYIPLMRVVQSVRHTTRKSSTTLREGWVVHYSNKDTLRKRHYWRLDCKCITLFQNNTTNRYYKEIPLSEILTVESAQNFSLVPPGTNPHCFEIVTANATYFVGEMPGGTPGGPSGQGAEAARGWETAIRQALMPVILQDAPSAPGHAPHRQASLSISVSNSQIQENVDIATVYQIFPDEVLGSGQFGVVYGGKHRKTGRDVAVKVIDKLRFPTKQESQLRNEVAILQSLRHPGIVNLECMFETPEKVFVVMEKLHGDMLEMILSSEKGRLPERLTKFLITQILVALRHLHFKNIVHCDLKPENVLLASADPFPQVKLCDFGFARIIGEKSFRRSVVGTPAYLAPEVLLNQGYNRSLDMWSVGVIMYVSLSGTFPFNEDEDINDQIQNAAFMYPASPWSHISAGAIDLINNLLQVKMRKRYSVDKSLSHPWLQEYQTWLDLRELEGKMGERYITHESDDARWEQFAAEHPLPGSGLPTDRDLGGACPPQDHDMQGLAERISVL

PRKD2 [3] = target: T2, PRKD2; settings: cited from earlier work
PRKD1 [4] = target: T1, PRKD1; settings: cited from earlier work; remark: listed apart in the source
CDC42BPG/DMPK2 = CDC42BPG/DMPK2 (Homo sapiens, UniProt Q6DT37); settings: cited from earlier work
CDC42BPB/MRCKB = CDC42BPB/MRCKB (Homo sapiens, UniProt Q9Y5S2); settings: cited from earlier work
CIT = CIT (Homo sapiens, UniProt O14578); settings: cited from earlier work
ACVR1B = target: T3, ACVR1B (Homo sapiens, UniProt P36896); settings: cited from earlier work
T3 sequence (P36896 24-505): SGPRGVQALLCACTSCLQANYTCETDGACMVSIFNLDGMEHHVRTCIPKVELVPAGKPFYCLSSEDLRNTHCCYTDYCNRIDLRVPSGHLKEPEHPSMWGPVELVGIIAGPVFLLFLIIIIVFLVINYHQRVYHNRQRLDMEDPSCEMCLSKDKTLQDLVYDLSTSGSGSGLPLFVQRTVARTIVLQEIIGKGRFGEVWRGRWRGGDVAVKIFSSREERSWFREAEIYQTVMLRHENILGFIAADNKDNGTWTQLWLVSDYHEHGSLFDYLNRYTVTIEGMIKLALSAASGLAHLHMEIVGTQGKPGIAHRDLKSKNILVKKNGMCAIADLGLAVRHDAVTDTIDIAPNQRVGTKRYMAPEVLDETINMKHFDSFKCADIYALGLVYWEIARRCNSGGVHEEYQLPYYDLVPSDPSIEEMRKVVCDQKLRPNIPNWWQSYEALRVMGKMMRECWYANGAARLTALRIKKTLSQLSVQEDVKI

TGFBR2 = TGFBR2 (Homo sapiens, UniProt P37173); settings: cited from earlier work
CSNK1E = CSNK1E (Homo sapiens, UniProt P49674); settings: cited from earlier work
PRKD3 = target: T4, PRKD3 (Homo sapiens, UniProt O94806); settings: cited from earlier work
T4 sequence (O94806 1-890): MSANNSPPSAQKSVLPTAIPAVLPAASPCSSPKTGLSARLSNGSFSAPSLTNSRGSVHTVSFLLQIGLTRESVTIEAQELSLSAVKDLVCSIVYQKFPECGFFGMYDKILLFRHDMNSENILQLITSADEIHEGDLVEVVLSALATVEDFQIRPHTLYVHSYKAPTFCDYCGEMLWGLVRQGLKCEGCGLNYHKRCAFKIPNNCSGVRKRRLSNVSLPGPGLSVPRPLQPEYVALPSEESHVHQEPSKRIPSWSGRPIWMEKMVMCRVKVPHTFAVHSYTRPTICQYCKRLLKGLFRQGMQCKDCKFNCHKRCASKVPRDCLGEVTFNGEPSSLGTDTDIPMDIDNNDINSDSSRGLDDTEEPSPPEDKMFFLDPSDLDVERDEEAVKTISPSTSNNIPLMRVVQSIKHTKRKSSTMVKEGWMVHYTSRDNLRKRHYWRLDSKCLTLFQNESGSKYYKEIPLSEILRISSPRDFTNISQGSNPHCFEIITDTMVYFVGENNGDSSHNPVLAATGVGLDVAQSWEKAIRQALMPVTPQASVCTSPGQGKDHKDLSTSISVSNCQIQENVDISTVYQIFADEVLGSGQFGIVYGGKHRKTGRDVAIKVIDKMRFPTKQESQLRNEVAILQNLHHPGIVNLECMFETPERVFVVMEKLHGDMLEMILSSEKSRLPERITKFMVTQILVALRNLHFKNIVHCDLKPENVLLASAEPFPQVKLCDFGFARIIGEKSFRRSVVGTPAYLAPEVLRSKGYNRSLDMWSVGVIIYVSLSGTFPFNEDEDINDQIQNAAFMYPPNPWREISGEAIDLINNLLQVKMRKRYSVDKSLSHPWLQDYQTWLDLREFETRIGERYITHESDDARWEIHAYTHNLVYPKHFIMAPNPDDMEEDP

JAK1(JH2) = target: T5, JAK1(JH2) (Homo sapiens, UniProt P23458); settings: cited from earlier work
T5 construct: JAK1(JH2)

CSNK1D = CSNK1D (Homo sapiens, UniProt P48730); settings: cited from earlier work
PIKFYVE = PIKFYVE (Homo sapiens, UniProt Q9Y2I7); settings: cited from earlier work
BMPR1B = BMPR1B (Homo sapiens, UniProt O00238); settings: cited from earlier work
MTOR = MTOR (Homo sapiens, UniProt P42345); settings: cited from earlier work
endogenous TFE3 = test: TFE3 nuclear translocation, immunocytochemistry high-content imaging; type: cell-based; settings: for EC50 / Best-Fit Values Span: 24 h, SH-SY5Y; for EC50: read-out: Best-Fit Values EC50 (converted); for Summary: activity in TFE3 assays compared with original NK-140, OT activity; for Best-Fit Values Span: TFE3 assay concentration response
TGFBR1 = target: T6, TGFBR1 (Homo sapiens, UniProt P36897); test: TGFBR1 binding KD (Table S3); settings: read-out: TGFBR1 KD
T6 sequence (P36897 34-503): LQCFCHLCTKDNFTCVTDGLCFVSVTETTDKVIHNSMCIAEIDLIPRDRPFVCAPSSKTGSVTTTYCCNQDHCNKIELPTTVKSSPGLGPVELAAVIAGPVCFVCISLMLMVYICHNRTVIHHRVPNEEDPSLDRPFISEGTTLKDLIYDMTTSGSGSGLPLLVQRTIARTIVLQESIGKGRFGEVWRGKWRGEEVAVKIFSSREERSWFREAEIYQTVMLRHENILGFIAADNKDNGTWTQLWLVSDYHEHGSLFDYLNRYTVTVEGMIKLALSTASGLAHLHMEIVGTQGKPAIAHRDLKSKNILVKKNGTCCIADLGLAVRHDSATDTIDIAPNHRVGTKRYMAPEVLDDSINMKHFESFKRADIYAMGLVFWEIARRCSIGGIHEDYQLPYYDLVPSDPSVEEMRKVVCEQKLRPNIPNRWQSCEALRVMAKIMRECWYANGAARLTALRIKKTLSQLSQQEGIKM
Source text: (§1) Supplement KAUP_A_2095834_SM5251.zip/Supplementary Tables R7.xlsx, sheet "Table S3 - Analogues"

PRKD1 [5] = target: T1, PRKD1; test: PRKD1 binding KD (Table S3); settings: relation sign
Source text: as §1

[6] = TFE3 assay, second EC50 of biphasic/bell-shaped fit or OT (off-target) activity, unit inferred

CSNK1E, sequence (P49674 whole entry): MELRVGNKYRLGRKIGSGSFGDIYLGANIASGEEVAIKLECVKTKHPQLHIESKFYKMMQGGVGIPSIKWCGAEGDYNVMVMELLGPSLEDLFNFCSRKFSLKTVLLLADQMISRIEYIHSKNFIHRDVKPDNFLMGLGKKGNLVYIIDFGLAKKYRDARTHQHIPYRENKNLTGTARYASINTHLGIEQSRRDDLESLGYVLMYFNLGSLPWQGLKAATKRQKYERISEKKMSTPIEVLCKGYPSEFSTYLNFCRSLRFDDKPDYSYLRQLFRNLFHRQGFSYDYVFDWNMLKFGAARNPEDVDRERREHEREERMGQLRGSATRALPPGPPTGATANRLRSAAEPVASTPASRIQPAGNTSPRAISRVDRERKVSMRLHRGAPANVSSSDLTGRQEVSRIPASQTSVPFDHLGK
T5 sequence (P23458 583-855 limits assumed): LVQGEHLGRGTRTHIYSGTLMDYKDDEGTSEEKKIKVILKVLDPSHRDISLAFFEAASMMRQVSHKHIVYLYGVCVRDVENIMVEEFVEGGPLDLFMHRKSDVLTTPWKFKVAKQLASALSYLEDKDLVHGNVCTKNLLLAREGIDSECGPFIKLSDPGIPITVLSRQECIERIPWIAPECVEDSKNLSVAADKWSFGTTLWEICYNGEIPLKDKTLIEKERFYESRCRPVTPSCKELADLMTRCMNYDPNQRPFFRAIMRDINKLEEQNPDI
CDC42BPB/MRCKB, sequence (Q9Y5S2 whole entry): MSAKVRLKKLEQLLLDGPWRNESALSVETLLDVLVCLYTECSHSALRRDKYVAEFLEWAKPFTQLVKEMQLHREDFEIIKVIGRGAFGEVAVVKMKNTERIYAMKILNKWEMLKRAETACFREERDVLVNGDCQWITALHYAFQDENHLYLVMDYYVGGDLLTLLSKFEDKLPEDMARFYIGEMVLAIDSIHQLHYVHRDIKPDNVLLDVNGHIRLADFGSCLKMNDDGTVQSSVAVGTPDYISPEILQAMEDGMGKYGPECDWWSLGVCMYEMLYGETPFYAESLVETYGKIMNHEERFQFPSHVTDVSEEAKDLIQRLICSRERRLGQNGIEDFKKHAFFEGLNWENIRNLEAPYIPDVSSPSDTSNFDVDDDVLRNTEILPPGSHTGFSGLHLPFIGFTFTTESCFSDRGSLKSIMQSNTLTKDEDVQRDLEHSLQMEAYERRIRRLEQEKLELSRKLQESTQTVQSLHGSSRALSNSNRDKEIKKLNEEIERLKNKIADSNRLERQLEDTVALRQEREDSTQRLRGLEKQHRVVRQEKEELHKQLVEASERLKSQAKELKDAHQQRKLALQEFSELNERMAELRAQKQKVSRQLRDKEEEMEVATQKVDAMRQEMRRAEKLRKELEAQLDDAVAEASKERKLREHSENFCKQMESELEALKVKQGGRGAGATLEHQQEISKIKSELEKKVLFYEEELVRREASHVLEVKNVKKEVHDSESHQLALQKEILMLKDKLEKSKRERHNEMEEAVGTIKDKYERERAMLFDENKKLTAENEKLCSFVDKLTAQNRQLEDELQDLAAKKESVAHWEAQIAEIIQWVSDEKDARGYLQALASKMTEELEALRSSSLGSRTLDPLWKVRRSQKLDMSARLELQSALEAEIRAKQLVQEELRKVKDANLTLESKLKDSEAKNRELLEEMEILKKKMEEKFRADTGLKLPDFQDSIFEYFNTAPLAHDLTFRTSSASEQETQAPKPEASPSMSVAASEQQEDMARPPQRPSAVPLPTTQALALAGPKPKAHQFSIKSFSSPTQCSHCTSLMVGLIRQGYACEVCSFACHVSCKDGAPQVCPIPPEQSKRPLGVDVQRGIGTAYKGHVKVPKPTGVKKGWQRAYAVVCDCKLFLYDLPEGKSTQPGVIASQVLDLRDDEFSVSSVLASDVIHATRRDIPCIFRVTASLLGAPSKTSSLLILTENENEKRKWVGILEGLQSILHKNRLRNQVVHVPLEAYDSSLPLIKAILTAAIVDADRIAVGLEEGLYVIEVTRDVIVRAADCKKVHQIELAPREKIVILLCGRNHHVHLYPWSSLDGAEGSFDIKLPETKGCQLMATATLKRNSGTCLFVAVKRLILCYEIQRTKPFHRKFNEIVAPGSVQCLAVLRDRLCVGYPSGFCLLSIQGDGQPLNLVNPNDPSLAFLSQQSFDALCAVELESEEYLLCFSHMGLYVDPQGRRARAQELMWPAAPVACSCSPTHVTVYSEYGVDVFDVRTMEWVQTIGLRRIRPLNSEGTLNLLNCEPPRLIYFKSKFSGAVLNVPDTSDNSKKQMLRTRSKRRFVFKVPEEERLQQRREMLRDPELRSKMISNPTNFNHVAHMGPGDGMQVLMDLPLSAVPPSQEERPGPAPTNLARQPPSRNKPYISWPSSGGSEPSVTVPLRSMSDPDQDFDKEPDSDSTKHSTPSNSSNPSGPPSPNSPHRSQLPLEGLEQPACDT
BMPR1B, sequence (O00238 14-502): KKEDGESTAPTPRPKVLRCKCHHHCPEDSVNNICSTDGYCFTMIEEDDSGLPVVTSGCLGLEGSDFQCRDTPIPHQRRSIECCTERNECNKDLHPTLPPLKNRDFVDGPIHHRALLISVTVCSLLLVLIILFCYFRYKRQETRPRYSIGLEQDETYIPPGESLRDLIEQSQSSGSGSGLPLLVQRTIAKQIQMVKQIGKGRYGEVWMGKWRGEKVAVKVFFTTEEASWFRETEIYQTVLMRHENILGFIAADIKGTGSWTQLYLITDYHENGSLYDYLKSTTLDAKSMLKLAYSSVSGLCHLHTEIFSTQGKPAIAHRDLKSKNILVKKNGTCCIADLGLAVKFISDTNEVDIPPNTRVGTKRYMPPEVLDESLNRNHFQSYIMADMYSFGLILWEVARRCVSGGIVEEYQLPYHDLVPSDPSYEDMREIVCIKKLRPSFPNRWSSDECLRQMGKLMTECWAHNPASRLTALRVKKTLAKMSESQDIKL
TGFBR2, sequence (P37173 23-567): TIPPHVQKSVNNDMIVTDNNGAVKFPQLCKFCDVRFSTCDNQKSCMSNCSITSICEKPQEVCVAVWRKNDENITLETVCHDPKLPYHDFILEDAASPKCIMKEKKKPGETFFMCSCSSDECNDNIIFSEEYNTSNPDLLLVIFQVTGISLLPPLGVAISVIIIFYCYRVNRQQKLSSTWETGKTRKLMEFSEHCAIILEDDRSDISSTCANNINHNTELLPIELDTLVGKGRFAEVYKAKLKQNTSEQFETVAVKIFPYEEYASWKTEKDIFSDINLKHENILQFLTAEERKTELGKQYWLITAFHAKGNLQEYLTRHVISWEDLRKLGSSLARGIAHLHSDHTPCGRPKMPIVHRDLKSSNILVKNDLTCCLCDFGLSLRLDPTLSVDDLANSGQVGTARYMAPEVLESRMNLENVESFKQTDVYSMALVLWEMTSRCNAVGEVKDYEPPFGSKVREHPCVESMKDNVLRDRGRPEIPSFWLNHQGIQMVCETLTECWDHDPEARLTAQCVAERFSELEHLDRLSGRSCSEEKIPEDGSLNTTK
CDC42BPG/DMPK2, sequence (Q6DT37 whole entry): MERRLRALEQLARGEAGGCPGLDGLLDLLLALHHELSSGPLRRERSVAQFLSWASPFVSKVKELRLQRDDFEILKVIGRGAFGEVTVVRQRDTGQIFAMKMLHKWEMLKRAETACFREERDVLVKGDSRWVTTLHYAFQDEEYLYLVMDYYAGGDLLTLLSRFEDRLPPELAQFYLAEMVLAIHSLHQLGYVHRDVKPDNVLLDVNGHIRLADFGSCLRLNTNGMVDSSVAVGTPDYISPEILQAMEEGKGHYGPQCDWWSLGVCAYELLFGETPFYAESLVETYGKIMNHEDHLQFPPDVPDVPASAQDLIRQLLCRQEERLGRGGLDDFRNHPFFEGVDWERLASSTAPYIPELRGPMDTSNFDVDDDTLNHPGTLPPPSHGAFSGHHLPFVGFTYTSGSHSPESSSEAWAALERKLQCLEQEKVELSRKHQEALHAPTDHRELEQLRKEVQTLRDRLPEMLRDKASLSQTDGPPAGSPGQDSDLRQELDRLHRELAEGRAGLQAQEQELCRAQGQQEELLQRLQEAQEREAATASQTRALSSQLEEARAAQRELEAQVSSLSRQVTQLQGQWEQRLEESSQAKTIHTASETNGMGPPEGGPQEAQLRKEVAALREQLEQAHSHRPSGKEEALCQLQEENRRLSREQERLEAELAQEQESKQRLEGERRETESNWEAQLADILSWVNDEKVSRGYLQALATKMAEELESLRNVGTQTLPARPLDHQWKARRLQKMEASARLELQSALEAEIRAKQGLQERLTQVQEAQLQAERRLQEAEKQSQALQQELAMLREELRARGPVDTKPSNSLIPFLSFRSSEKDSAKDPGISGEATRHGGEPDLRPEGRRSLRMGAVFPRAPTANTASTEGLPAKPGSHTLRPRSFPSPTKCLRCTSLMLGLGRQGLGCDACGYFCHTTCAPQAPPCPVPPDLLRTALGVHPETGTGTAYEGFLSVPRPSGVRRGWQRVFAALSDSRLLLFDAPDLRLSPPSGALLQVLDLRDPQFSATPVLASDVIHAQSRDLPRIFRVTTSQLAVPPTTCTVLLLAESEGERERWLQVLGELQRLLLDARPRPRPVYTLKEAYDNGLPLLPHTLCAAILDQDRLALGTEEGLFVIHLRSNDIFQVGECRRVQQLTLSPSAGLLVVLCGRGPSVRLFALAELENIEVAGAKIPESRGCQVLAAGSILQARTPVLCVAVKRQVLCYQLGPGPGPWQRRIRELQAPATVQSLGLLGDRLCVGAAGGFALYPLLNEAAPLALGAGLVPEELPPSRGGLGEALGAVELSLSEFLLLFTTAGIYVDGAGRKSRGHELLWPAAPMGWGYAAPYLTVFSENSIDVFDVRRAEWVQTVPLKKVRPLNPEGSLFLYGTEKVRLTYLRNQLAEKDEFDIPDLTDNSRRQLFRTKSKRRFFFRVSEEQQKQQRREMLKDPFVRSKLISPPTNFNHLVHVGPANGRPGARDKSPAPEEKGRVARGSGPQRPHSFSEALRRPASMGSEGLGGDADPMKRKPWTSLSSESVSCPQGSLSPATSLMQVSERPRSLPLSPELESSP
Experimental for SH-SY5Y cells: Total cell lysis with 5 µL 5% Triton-X 100 (Sigma-Aldrich, T8787) is used as a positive control for the assay and toxicity is expressed as a percentage of luminescence under DMSO conditions.

## CC[C@@H](N)CNc1ccnc(-c2cc(-c3cnn(C)c3)ccc2O)n1.Cl.Cl [CRT0066101, reference compound]
SH-SY5Y cells
  Cellular toxicity (AK release and nuclear count, in words): pronounced cellular toxicity
  Concentrations toxic to cells (reduction in nuclear count and increase in AK signal): above 1 µM
PRKD1 [1]
  IC50: 0.001 µM
PRKD2 [2]
  IC50: 0.0025 µM

## Cc1cccc(-c2nc(Nc3ccc4[nH]ncc4c3)c3ccccc3n2)n1 [GW857175]
PRKD2 [3]
  KINOMEscan binding PRKD2: 99.9%
PRKD1 [4]
  KINOMEscan binding PRKD1: 99.8%
CDC42BPG/DMPK2
  KINOMEscan binding CDC42BPG/DMPK2: 72%
CDC42BPB/MRCKB
  KINOMEscan binding CDC42BPB/MRCKB: 72%
CIT
  KINOMEscan binding CIT: 9%
ACVR1B
  KINOMEscan binding ACVR1B: 100%
TGFBR2
  KINOMEscan binding TGFBR2: 0%
CSNK1E
  KINOMEscan binding CSNK1E: 28%
PRKD3
  KINOMEscan binding PRKD3: 98.1%
JAK1(JH2)
  KINOMEscan binding JAK1(JH2): 83%
CSNK1D
  KINOMEscan binding CSNK1D: 28%
PIKFYVE
  KINOMEscan binding PIKFYVE: 85%
BMPR1B
  KINOMEscan binding BMPR1B: 34%
MTOR
  KINOMEscan binding MTOR: 0%

## Cc1cccc(-c2nc(Nc3ccc4nc(C)sc4c3)c3ccccc3n2)n1 [NK165]
Endogenous TFE3; [6]
  EC50: 3.8 µM
Endogenous TFE3; TFE3 assay, µM
  EC50: 0.58 µM
Endogenous TFE3
  Summary: Stronger, Some OT activity
TGFBR1
  Kd: > 10 µM

## COc1ccc(Nc2nc(-c3cccc(C)n3)nc3ccccc23)cc1 [NK170]
Endogenous TFE3; Homo sapiens
  EC50: 0.85 µM
Endogenous TFE3; Homo sapiens, TFE3 assay, µM
  EC50: 0.83 µM
Endogenous TFE3
  Summary: Weaker, Strong OT activity
PRKD1 [5]
  Kd: 0.78 µM

## Cc1cccc(-c2nc(Nc3ccc4ccsc4c3)c3ccccc3n2)n1 [NK219]
Endogenous TFE3; Homo sapiens
  EC50: 2.51 µM
Endogenous TFE3; Homo sapiens, TFE3 assay, µM
  EC50: 2.5 µM
Endogenous TFE3
  Best-Fit Values Span: 44.67
  Summary: Weaker, Strong OT activity
PRKD1 [5]
  Kd: 0.65 µM

## Cc1cccc(-c2nc(Oc3ccc4scnc4c3)c3ccccc3n2)n1 [NK220]
Endogenous TFE3
  Best-Fit Values Span: 0.80
  Summary: Inactive
TGFBR1
  Kd: > 10 µM

## Cc1cccc(-c2nc(Nc3ccc4nnn(C)c4c3)c3ccccc3n2)n1 [NK222]
Endogenous TFE3; [6]
  EC50: 3.12 µM
Endogenous TFE3; TFE3 assay, µM
  EC50: 0.22 µM
Endogenous TFE3
  Summary: Stronger, Some OT activity
TGFBR1
  Kd: > 10 µM

## Cc1cccc(-c2nc(Nc3ccc4nn(C)nc4c3)c3ccccc3n2)n1 [NK223]
Endogenous TFE3
  Best-Fit Values Span: 88.41
  Summary: Only OT activity
Endogenous TFE3; [6]
  EC50: 1.34 µM
TGFBR1
  Kd: > 10 µM
